Reference: ChEMBL document CHEMBL1151011, “Heterocyclic analogs of the benzolactam nucleus of the non-peptidic growth hormone secretagogue L-692,429” (1995)
pEC50: −log10 of the molar value. Calls of active or inactive are those of the source. The rule behind the calls is not given here.

What was measured:
[1] = organism: Rattus norvegicus; experiment: Effective dose of compound required for in vitro effect on growth hormone release was measured in rat pituitary cell assay; IA means compound is inactive at 20 ug/mL concentration; format: functional; details: Pituitary gland cell
[2] = organism: Rattus norvegicus; experiment: Effective dose of compound required for in vitro effect on growth hormone release was measured in rat pituitary cell assay; format: functional, Pituitary gland cell; details: read-out: ED50 (the source's name)
[3] = Rattus norvegicus, Pituitary gland cell

SMILES	pEC50 [2, 3]	further results
CC1=NC(NC(=O)CC(C)(C)N)C(=O)N(Cc2ccc(-c3ccccc3-c3nn[nH]n3)cc2)c2ccccc21 (configuration not stated)		ED50 [1]: inactive
CC(C)(N)CC(=O)N[C@@H]1CC(=O)c2ccccc2N(Cc2ccc(-c3ccccc3-c3nn[nH]n3)cc2)C1=O	5.57	
CC(C)(N)CC(=O)N[C@@H]1C[S+]([O-])c2ccccc2N(Cc2ccc(-c3ccccc3-c3nn[nH]n3)cc2)C1=O (stereo in doubt; 22a)		pEC50 [2]: 5.40
CC(C)(N)CC(=O)N[C@@H]1CCc2ccccc2N(Cc2ccc(-c3ccccc3-c3nn[nH]n3)cc2)C1=O	7.22	
CC(C)(N)CC(=O)N[C@@H]1CC(O)c2ccccc2N(Cc2ccc(-c3ccccc3-c3nn[nH]n3)cc2)C1=O (some centres not stated)	5.40	
CC(C)(N)CC(=O)NC1CCc2ccccc2N(Cc2ccc(-c3ccccc3-c3nn[nH]n3)cc2)C1=O [L-158432]	6.92	
CC(C)(N)CC(=O)N[C@@H]1COc2ccccc2N(Cc2ccc(-c3ccccc3-c3nn[nH]n3)cc2)C1=O	6.92	
CC(C)(N)CC(=O)N[C@@H]1CSc2ccccc2N(Cc2ccc(-c3ccccc3-c3nn[nH]n3)cc2)C1=O	7.00	
CC(C)(N)CC(=O)N[C@@H]1C[S+]([O-])c2ccccc2N(Cc2ccc(-c3ccccc3-c3nn[nH]n3)cc2)C1=O (stereo in doubt)	5.52	
CC(C)(N)CC(=O)NC1Cc2ccccc2N(Cc2ccc(-c3ccccc3-c3nn[nH]n3)cc2)C1=O (configuration not stated)	5.70	
CC(C)(N)CC(=O)N[C@@H]1CS(=O)(=O)c2ccccc2N(Cc2ccc(-c3ccccc3-c3nn[nH]n3)cc2)C1=O	6.00	
CC(C)(N)CC(=O)NC1Sc2ccccc2N(Cc2ccc(-c3ccccc3-c3nn[nH]n3)cc2)C1=O (configuration not stated)	6.30	
